Earlier results as cited in US11400098B2, “Method of treating microbial infections” (priority 2011, dated 2022).

Tested on: S. epidermidis
Settings: background statement

O=C(OOC(=O)c1ccccc1)c1ccccc1 [BPO, benzoyl peroxide]
effect on growth of S. epidermidis: strongly suppresses the growth
